Laboratory results reported in patent US9441012B2, “Fluorinated epoxyketone-based compounds and uses thereof as proteasome inhibitors” (FLUORINOV PHARMA INC., priority 2012, dated 2016).

Columns and labels:
KMS-11 = assay: Cell viability assay (MTS); format: cell-based; settings: Homo sapiens, 72 hours, mean ± standard deviation
Experimental: (§1) Human multiple myeloma cell lines 8226, H929, JJN3, KMH11, KMS11, KMS18, LP1, MM1S, OPM2 and U266 were grown in Iscove modified Dulbecco's medium (IMDM). Human leukemia cell lines K562, OCI-AML2 and U937 were cultured in RPMI-1640 medium. Primary peripheral blood mononuclear cells were isolated from multiple myeloma patients by Ficoll density gradient centrifugation and bone marrow aspirates were obtained from multiple myeloma patients at the Princess Margaret Cancer Centre of the University Health Network (UHN; Toronto, ON, Canada). Primary cells were cultured in IMDM. The collection and use of human tissue for this study were approved by the UHN institutional ethics review board. All cell culture media were obtained from the Ontario Cancer Institute Tissue Culture Media Facility (Toronto, ON, Canada) and were supplemented with 10% fetal calf serum, […] (Hyclone, Logan, Utah). All cells were grown in a humidified incubator at 37° C. with 5% CO2.
(§2) Cellular viability was primarily assessed by 3-(4,5-dimethylthiazol-2-yl)-5-(3-carboxymethoxyphenyl)-2-(4-sulfophenyl)-2H-tetrazolium (MTS) assay according to the manufacturer's instructions (Promega; Madison, Wis.). Cells were first seeded at a density of 10,000 cells per well in tissue culture-treated 96-well plates. Two hours after seeding, cells were treated with compounds for 72 hours at concentrations as indicated. As a control, cells were treated with DMSO alone in every assay plate. Following treatment and the MTS assay, cell viability was independently confirmed by reading the optical density (O.D.) at 490 nm and by exclusion of trypan blue stain (Invitrogen; Burlington, ON, Canada). The viability of primary mononuclear cells was determined by staining with Annexin V.
(§3) Table 9 summarizes data obtained for representative compounds of Formula I for cell viability and CT-L proteasome activity using OCI-AML-2 and KMS-11 cell lines.

OCI-AML-2 = assay: Cell viability assay (MTS); format: cell-based; settings: Homo sapiens, OCI-AML2, 72 hours, mean ± standard deviation
Experimental: as §1, §2, §3

[1] = system: chymotrypsin-like (CT-L) proteasome activity, KMS-11; assay: Proteasome enzymatic activity (tumor cell lysates); format: biochemical, human; settings: KMS-11 cell lysate; mean ± standard deviation
Experimental: (§4) Cells were harvested by centrifugation at 1,200 rpm at room temperature. Cell pellets were washed with PBS and lysed with assay lysis buffer (50 mM HEPES (N-2-hydroxyethylpiperazine-N′-2-ethanesulfonic acid), pH 7.5; 150 mM NaCl; 1% Triton X-100; 2 mM ATP). Cell lysates were incubated on ice for 30 minutes, mixed by vortex every 5 minutes, and then centrifuged at 12,000 g for 10 minutes. The supernatant was transferred to a 96-well plate. For each assay, 10 μg of total protein were incubated for 1 hour at 37° C. with increasing concentrations (1 nM to 10 μM) of test compound diluted in assay buffer (50 mM Tris-HCl (tris(hydroxymethyl)aminomethane-HCl), pH 7.5; 150 mM NaCl). DMSO alone was used as a control in every assay plate. After incubation, a specific fluorogenic proteasome substrate was added to each assay reaction at a final concentration of 40 μM in a total volume of 100 μL. N-Succinyl-Leu-Leu-Val-Tyr-7-amino-4-methylcoumarin (Suc-Leu-Leu-Val-Tyr-AMC) was used for measuring chymotrypsin-like (CT-L) activity, t-butoxycarbonyl-Leu-Arg-Arg-7-amino-4-methylcoumarin (Boc-Leu-Arg-Arg-AMC) for trypsin-like (T-L) activity, and benzyloxycarbonyl-L-leucyl-L-leucyl-L-glutamyl-7-amino-4-methylcoumarin (Z-Leu-Leu-Glu-AMC) for caspase-like (C-L) activity. The excitation wavelength was set at 360 nm and the fluorescence emission wavelength of AMC was detected at 460 nm. The fluorescence of free AMC released during the enzymatic reaction was measured with a SpectraMax M5 fluorescent spectrophotometric plate reader (Molecular Devices, Sunnyvale, Calif.). AMC release rate was measured at 37° C. in a kinetic mode, recording every 5 minutes for 30 minutes. Experiments were performed in triplicate and repeated at least twice.
as §3

[2] = system: chymotrypsin-like (CT-L) proteasome activity, OCI-AML-2; assay: Proteasome enzymatic activity (tumor cell lysates); format: biochemical, human; settings: OCI-AML-2 cell lysate; mean ± standard deviation
Experimental: as §4, §3

[3] = system: primary CD138+ myeloma cells; settings: compared with Example 1; Trudel et al. ASH 2009; cited from earlier work

Row | Structure (SMILES) | IC50 (KMS-11) | IC50 (OCI-AML-2) | IC50 [1] | IC50 [2] | therapeutic index between CD138+ and CD-138− in patient samples [3]
1 | CC(C)C[C@H](NC(=O)[C@H](COC(F)F)NC(=O)CN1CCOCC1)C(=O)N[C@@H](Cc1ccccc1)C(=O)[C@@]1(C)CO1 [Example 27, (2S)-N-[(1S)-1-benzyl-2-[(2R)-2-methyloxiran-2-yl]-2-oxo-ethyl]-2-[[(2S)-3-(difluoromethoxy)-2-[(2-morpholinoacetyl)amino]propanoyl]amino]-4-methylpentanamide] | 0.25 ± 0.0259 µM | 0.401 ± 0.275 µM | 0.743 ± 0.0837 µM | 0.6 ± 0.0575 µM | 
2 | CC(C)C[C@H](NC(=O)[C@H](COC(F)F)NC(=O)CN1CCOCC1)C(=O)N[C@@H](CC(C)C)C(=O)[C@@]1(C)CO1 [Example 28, (2S)-2-[[(2S)-3-(difluoromethoxy)-2-[(2-morpholino-acetyl)amino]propa-noyl]amino]-4-methyl-N-[(1S)-3-methyl-1-[(2R)-2-methyloxirane-2-carbonyl]butyl]pentanamide] | 0.1 ± 0.0187 µM | 0.132 ± 0.0876 µM | 0.575 ± 0.0627 µM | 0.556 ± 0.123 µM | 
3 | CC(C)C[C@H](NC(=O)[C@H](COC(F)F)NC(=O)[C@H](COC(F)F)NC(=O)CN1CCOCC1)C(=O)[C@@]1(C)CO1 [Example 33, (2S)-3-(difluoromethoxy)-N-[(1S)-1-(difluoromethoxymethyl)-2-[[(1S)-3-methyl-1-[(2R)-2-methyloxirane-2-carbonyl]butyl]amino]-2-oxo-ethyl]-2-[(2-morpholinoacetyl)amino]propanamide] | 0.0467 ± 0.00989 µM | 0.14 ± 0.0535 µM | 0.704 ± 0.173 µM | 0.599 ± 0.0777 µM | 
4 | CC(C)C[C@H](NC(=O)[C@H](CCc1ccccc1)NC(=O)CN1CCOCC1)C(=O)N[C@@H](Cc1ccccc1)C(=O)N[C@@H](CC(C)C)C(=O)[C@@]1(C)CO1 [carfilzomib] |  |  |  |  | much narrower therapeutic index
